Laboratory results taken from patent US12606528B2, “Methods and materials for inhibiting NF-kB activity” (University of Pittsburgh - Of the Commonwealth System of …, priority 2019, dated 2026).
Where two headings read alike, the source gives them in different places.

How the values were obtained:
NF-κB = NF-κB assay: THP1-NF-κB-LUC cells, LPS-stimulated secreted luciferase; format: cell-based; conditions: read-out: IC50 (NF-κB assay)
In short: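 THP1-NF-κB-LUC cells (25k/well) were pretreated with compounds for 2 h, then stimulated with LPS (10 ng/mL) for 18 h. Secreted luciferase was measured and normalized to vehicle, and IC50 was fitted from the concentration series.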

TNF release = assay: TNF assay: TNF release from LPS-stimulated human PBMCs (TNF ELISA); format: cell-based; conditions: PBMC, read-out: IC50 (TNF assay)
Protocol: 25k THP1-NF-κB-LUC cells were dispensed into 384 well plate (per well). Cells were treated with compounds with various concentrations for 2 hours before addition of LPS (10 ng/mL) for 18 hours. Secreted luciferase activity were measured using quant-luc reagents (1 bag of luc reagent dilute to 40 mL, use 10 μL per well). Data were normalized to vehicle control and graphed. Compound IC50 towards inhibiting NF-κB were determined through Prism. Similarly, 10k human PBMCs cells were cultured in 384 well plate (per well). Cells were treated with compounds with various concentrations for 2 hours before addition of LPS (10 ng/ml) for 18 hours, and supernatants were collected and assayed for TNF ELISA. Compound IC50 towards inhibiting TNF release were determined through Prism. • Activity: “+”>10 μM, “++”>1 μM and <10 μM, “+++”>0.1 μM and <1 μM, “++++”<0.1 μM.

[1] = THP1-NF-κB-LUC cells, LPS-stimulated
[2] = LPS-stimulated human PBMCs, TNF ELISA
[3] = THP1-NF-κB-LUC cells, compounds 2 hours before LPS (10 ng/mL) for 18 hours, secreted luciferase
[4] = human PBMCs, compounds 2 hours before LPS (10 ng/ml) for 18 hours, supernatant TNF ELISA

SMILES | IC50 (NF-κB; [1]) | IC50 (TNF release; [2]) | IC50 (NF-κB; [3]) | further results
CC(C)S(=O)(=O)[C@@H]1CN(Cc2ccccc2)C[C@H]1S(=O)(=O)c1ccc(F)cc1 (racemic) [BC19643] | > 10 µM | > 10 µM | – | –
CC(=O)N1C[C@@H](S(=O)(=O)c2ccc(F)cc2)[C@H](S(=O)(=O)C(C)C)C1 (racemic) [BC19670] | 1 to 10 µM | 1 to 10 µM | – | –
CC(C)S(=O)(=O)[C@H]1CN(C(=O)c2ccccc2)C[C@@H]1S(=O)(=O)c1ccc(F)cc1 (racemic) [BC19683] | > 10 µM | 1 to 10 µM | – | –
CC(C)S(=O)(=O)[C@H]1CN(C2CCOCC2)C[C@@H]1S(=O)(=O)c1ccc(F)cc1 (racemic) [BC19684] | > 10 µM | > 10 µM | – | –
Cn1cnnc1-c1ccc2nc(-c3ccc(F)cc3)c(-c3ccc(F)cc3)nc2c1 [BC19101] | < 0.1 µM | > 10 µM | – | –
Cc1nnc(-c2ccc3nc(-c4ccc(F)cc4)c(-c4ccc(F)cc4)nc3c2)[nH]1 [BC19102] | 0.1 to 1 µM | > 10 µM | – | –
CN1CCN(C(=O)c2ccc3nc(C(F)(F)F)c(-c4ccc(F)cc4)nc3c2)CC1 [BC19103] | > 10 µM | > 10 µM | – | –
CN1CCN(C(=O)c2ccc3nc(C(F)(F)F)c(-c4ccccc4)nc3c2)CC1 [BC19104] | > 10 µM | > 10 µM | – | –
CN1CCN(C(=O)c2ccc3nc(C(F)(F)F)c(-c4cccnc4)nc3c2)CC1 [BC19105] | > 10 µM | > 10 µM | – | –
CN1CCN(C(=O)c2ccc3nc(C(F)(F)F)c(-c4ccccc4F)nc3c2)CC1 [BC19106] | > 10 µM | > 10 µM | – | –
CN1CCN(C(=O)c2ccc3nc(C(F)(F)F)c(-c4ccc(F)cc4F)nc3c2)CC1 [BC19107] | > 10 µM | > 10 µM | – | –
CN1CCN(C(=O)c2ccc3nc(C(F)(F)F)c(-c4cc(F)cc(F)c4)nc3c2)CC1 [BC19108] | > 10 µM | > 10 µM | – | –
CN1CCN(C(=O)c2ccc3nc(-c4cccs4)c(-c4ccc(F)cc4)nc3c2)CC1 [BC19109] | 0.1 to 1 µM | > 10 µM | – | –
CN1CCN(C(=O)c2ccc3nc(-c4ccc(F)cc4)c(C(F)(F)F)nc3c2)CC1 [BC19110] | > 10 µM | > 10 µM | – | –
Fc1ccc(-c2nc3cc(-c4nnc[nH]4)ccc3nc2C(F)(F)F)cc1 [BC19111] | > 10 µM | > 10 µM | – | –
Cn1nnnc1-c1ccc2nc(C(F)(F)F)c(-c3ccc(F)cc3)nc2c1 [BC19112] | > 10 µM | > 10 µM | – | –
Fc1ccc(-c2nc3cc(-c4nnn[nH]4)ccc3nc2C(F)(F)F)cc1 [BC19113] | > 10 µM | > 10 µM | – | –

SMILES | IC50 (NF-κB; [1]) | IC50 (TNF release; [2]) | IC50 (NF-κB; [3]) | further results
Cc1cnc(-c2ccc3nc(C(F)(F)F)c(-c4ccc(F)cc4)nc3c2)o1 [BC19114] | > 10 µM | > 10 µM | – | –
Fc1ccc(-c2nc3cc(-c4ncco4)ccc3nc2C(F)(F)F)cc1 [BC19115] | > 10 µM | > 10 µM | – | –
Fc1ccc(-c2nc3cc(-c4nnco4)ccc3nc2C(F)(F)F)cc1 [BC19116] | > 10 µM | > 10 µM | – | –
NC(=O)c1ccc2nc(-c3ccc(F)cc3)c(C(F)(F)F)nc2c1 [BC19117] | > 10 µM | > 10 µM | – | –
O=C(O)c1ccc2nc(-c3ccc(F)cc3)c(-c3ccc(F)cc3)nc2c1 [BC19118] | 1 to 10 µM | > 10 µM | – | –
CNC(=O)c1ccc2nc(-c3cccs3)c(-c3ccc(F)cc3)nc2c1 [BC19119] | < 0.1 µM | < 0.1 µM | – | –
C#CCNC(=O)c1ccc2nc(-c3cccs3)c(-c3ccc(F)cc3)nc2c1 [BC19120] | < 0.1 µM | < 0.1 µM | – | –
O=c1c(S(=O)(=O)c2ccc(F)c(F)c2)c[nH]c2cccnc12 [BC19121] | – | – | > 10 µM | IC50 (TNF release; [4]): > 10 µM
O=c1c(S(=O)(=O)c2ccc(F)c(F)c2)c[nH]c2ccc(Cl)nc12 [BC19122] | – | – | > 10 µM | IC50 (TNF release; [4]): > 10 µM
O=c1c(S(=O)(=O)c2ccc(F)cc2)c[nH]c2ccncc12 [BC19123] | – | – | 1 to 10 µM | IC50 (TNF release; [4]): > 10 µM
O=c1c(S(=O)(=O)c2ccc(F)cc2)c[nH]c2cccnc12 [BC19124] | – | – | > 10 µM | IC50 (TNF release; [4]): > 10 µM
CCS(=O)(=O)c1oc(-c2ccc(C)cc2)nc1S(=O)(=O)c1ccc(F)cc1 [BC19125] | < 0.1 µM | < 0.1 µM | – | –
Cc1ccc(-c2nc(S(=O)(=O)c3ccc(Cl)cc3)c(S(C)(=O)=O)o2)cc1 [BC19126] | 1 to 10 µM | 0.1 to 1 µM | – | –
CCS(=O)(=O)c1oc(-c2ccc(C)cc2)nc1S(=O)(=O)c1ccc(Cl)cc1 [BC19127] | < 0.1 µM | 1 to 10 µM | – | –
Cc1cc2c(cc1S(=O)(=O)Nc1ccccc1Br)OCC(=O)N2 [BC181344] | – | – | 0.1 to 1 µM | –
CC(=O)N1CCOc2cc(S(=O)(=O)Nc3ccccc3C)c(C)cc21 [BC181351] | – | – | – | IC50 (NF-κB): > 10 µM

Now from value to compound, other results behind:

IC50 (NF-κB; [1]) | IC50 (TNF release; [2]) | IC50 (NF-κB; [3]) | SMILES | further results
– | – | > 10 µM | CCN(c1ccccc1)S(=O)(=O)c1cc2c(cc1C)NC(=O)CO2 [BC181345] | –
– | – | > 10 µM | Cc1ccc(NS(=O)(=O)c2cc3c(cc2C)NC(=O)CO3)c(C)c1 [BC181346] | –
– | – | 1 to 10 µM | CCc1cccc(NS(=O)(=O)c2cc3c(cc2C)NC(=O)CO3)c1 [BC181347] | –
– | – | > 10 µM | CCN(CC)c1ccc(NS(=O)(=O)c2cc3c(cc2C)NC(=O)CO3)c(C)c1 [BC181348] | –
– | – | > 10 µM | CCN(c1ccc(OC)cc1)S(=O)(=O)c1cc2c(cc1C)NC(=O)CO2 [BC181349] | –
– | – | 1 to 10 µM | CC(=O)N1CCOc2cc(S(=O)(=O)Nc3cccc(Cl)c3)c(C)cc21 [BC181350] | –
– | – | > 10 µM | CCc1ccc(NS(=O)(=O)c2cc3c(cc2C)N(C)CCO3)cc1 [BC181352] | –
– | – | < 0.1 µM | Cc1ccc(NS(=O)(=O)c2cc3c(cc2C)NC(=O)CO3)cc1F [BC181353] | –
– | – | < 0.1 µM | Cc1cc2c(cc1S(=O)(=O)Nc1cccc(Cl)c1)OCC(=O)N2 [BC181354] | –
– | – | < 0.1 µM | Cc1cc2c(cc1S(=O)(=O)Nc1ccc(Cl)cc1)OCC(=O)N2 [BC181355] | –
– | – | > 10 µM | CCc1ccccc1NS(=O)(=O)c1cc2c(cc1C)NC(=O)CO2 [BC181356] | –
– | – | > 10 µM | COc1ccc(OC)c(NS(=O)(=O)c2cc3c(cc2C)NC(=O)CO3)c1 [BC181357] | –
– | – | > 10 µM | COc1ccc(Cl)cc1NS(=O)(=O)c1cc2c(cc1C)NC(=O)CO2 [BC181358] | –
– | – | > 10 µM | Cc1cccc(N(C)S(=O)(=O)c2cc3c(cc2C)NC(=O)CO3)c1 [BC181359] | –
– | – | > 10 µM | COc1ccc(OC)c(N(C)S(=O)(=O)c2cc3c(cc2C)NC(=O)CO3)c1 [BC181360] | –
– | – | 0.1 to 1 µM | CC(=O)N1CCOc2cc(S(=O)(=O)Nc3ccc(Cl)cc3)c(C)cc21 [BC181361] | –
– | – | 1 to 10 µM | CC(=O)N1CCOc2cc(S(=O)(=O)Nc3ccc(C(C)C)cc3)c(C)cc21 [BC181362] | –
– | – | > 10 µM | Cc1cc2c(cc1S(=O)(=O)Nc1cccc(F)c1)OCCN2C [BC181363] | –
– | – | 0.1 to 1 µM | Cc1cc2c(cc1S(=O)(=O)Nc1ccc(F)c(F)c1)OCC(=O)N2 [BC181364] | –
– | – | 1 to 10 µM | Cc1cc2c(cc1S(=O)(=O)Nc1cc(C(F)(F)F)cc(C(F)(F)F)c1)OCC(=O)N2 [BC181365] | –

IC50 (NF-κB; [1]) | IC50 (TNF release; [2]) | IC50 (NF-κB; [3]) | SMILES | further results
– | – | 1 to 10 µM | Cc1ccc(Cl)cc1NS(=O)(=O)c1cc2c(cc1C)NC(=O)CO2 [BC181366] | –
– | – | < 0.1 µM | CCc1ccc(NS(=O)(=O)c2cc3c(cc2C)NC(=O)CO3)cc1 [BC181367] | –
– | – | 1 to 10 µM | Cc1ccc(NS(=O)(=O)c2cc3c(cc2C)NC(=O)CO3)cc1C [BC181368] | –
– | – | 1 to 10 µM | COc1ccc(NS(=O)(=O)c2cc3c(cc2C)NC(=O)CO3)cc1Cl [BC181369] | –
– | – | < 0.1 µM | Cc1ccc(NS(=O)(=O)c2cc3c(cc2C)NC(=O)CO3)cc1 [BC181370] | –
– | – | > 10 µM | CC(=O)c1ccc(NS(=O)(=O)c2cc3c(cc2C)N(C(C)=O)CCO3)cc1 [BC181371] | –
– | – | 1 to 10 µM | CC(=O)N1CCOc2cc(S(=O)(=O)Nc3ccc(F)cc3F)c(C)cc21 [BC181372] | –
– | – | > 10 µM | CCc1cccc(NS(=O)(=O)c2cc3c(cc2C)N(C(C)=O)CCO3)c1 [BC181373] | –
– | – | > 10 µM | CCOc1ccc(NS(=O)(=O)c2cc3c(cc2C)N(C)CCO3)cc1 [BC181374] | –
– | – | 0.1 to 1 µM | Cc1cc2c(cc1S(=O)(=O)Nc1ccc(F)cc1Cl)OCC(=O)N2 [BC181375] | –
– | – | > 10 µM | COc1ccc(NS(=O)(=O)c2cc3c(cc2C)NC(=O)CO3)c(OC)c1 [BC181376] | –
– | – | < 0.1 µM | Cc1cc2c(cc1S(=O)(=O)Nc1cccc(F)c1)OCC(=O)N2 [BC181377] | –
– | – | 1 to 10 µM | Cc1cc(C)cc(NS(=O)(=O)c2cc3c(cc2C)NC(=O)CO3)c1 [BC181378] | –
– | – | > 10 µM | CCOc1ccccc1NS(=O)(=O)c1cc2c(cc1C)NC(=O)CO2 [BC181379] | –
– | – | 0.1 to 1 µM | Cc1cc2c(cc1S(=O)(=O)Nc1ccccc1Cl)OCC(=O)N2 [BC181380] | –
– | – | > 10 µM | COc1ccc(NS(=O)(=O)c2cc3c(cc2C)N(C(C)=O)CCO3)cc1OC [BC181381] | –
– | – | > 10 µM | COc1ccc(NS(=O)(=O)c2cc3c(cc2C)N(C(C)=O)CCO3)c(OC)c1 [BC181382] | –
– | – | 0.1 to 1 µM | CC(=O)N1CCOc2cc(S(=O)(=O)Nc3ccc(C)c(F)c3)c(C)cc21 [BC181383] | –
– | – | 1 to 10 µM | Cc1cc2c(cc1S(=O)(=O)Nc1ccc(C(C)C)cc1)OCCN2C [BC181384] | –
– | – | > 10 µM | CC(=O)Nc1ccc(NS(=O)(=O)c2cc3c(cc2C)NC(=O)CO3)cc1 [BC181385] | –
